Assays:
[1] = tested on: collagen induced platelet-aggregation (Platelet Rich Plasma); assay: Inhibition of platelet-aggregation (collagen induced, aggregometer, rat PRP); format: cell-based, Wistar-strain male rats; details: for Platelet Aggregation (%): control 58 ± 1; for IC50: same manner (collagen), male rats weighing 500-700 g
Description: (2) Inhibition of platelet-aggregation
Groups of 5 Wistar-strain male rats (weighing 250-300 g) were used for collection of blood from abdominal aorta in the presence of sodium citric acid under anesthesia with ether. The obtained material was centrifuged at 200×g for 8 minutes to give Platelet Rich Plasma (PRP) from the supernatant. Further centrifugation was carried out at 1500×g for 15 minutes to obtain Platelet Poor Plasma (PPP) from the supernatant.
Platelet-aggregation was measured by aggregometer. 5 μl of the solution of the examined compound was added to 450 μl of the above-mentioned PRP and incubated for 1 minute at 37° C., after that a coagulant was added thereto. Collagen was used as the coagulant (final concentration was 4 μg/ml). Test compound was dissolved in DMSO (dimethylsulfoxide).
In the same manner as indicated above using Wister strain male rats weighing 500-700 g, example of the results is shown in Table 2.

ddy-strain male mice = assay: Acute toxicity test; format: in vivo; details: 4000 mg/kg, orally administered, groups of 5 ddy-strain male mice fasted for 18 hours
Description: 4000 mg/kg of the compound of the invention were orally administered to groups of 5 ddy-strain male mice which were fasted for 18 hours.

[2] = 300 μM, collagen 4 μg/ml, PRP of Wistar-strain male rats 250-300 g, 1 minute at 37° C.
[3] = Rattus norvegicus, Platelet, 1 min, 300 μM, collagen 4 μg/ml, PRP of Wistar-strain male rats 250-300 g, 1 minute at 37° C., read-out: Inhibition rate (%)

CC(=O)Oc1ccccc1C(=O)O [Aspirin, reference compound]
Platelet Aggregation (%) [1, 2]: 23 ± 4% | inhibition at 300 µM [1, 3]: 60%

COc1ccc2c(c1)c(CC(=O)O)c(C)n2C(=O)c1ccc(Cl)cc1 [Indomethacin, reference compound]
IC50 ([1]; Rattus norvegicus, Platelet): 27 µM

COc1ccc(C(=O)c2c[nH]c3ccccc23)cc1 [compound 1, 3-(p-methoxybenzoyl)indole]
mortality (none of the mice were died) (ddy-strain male mice): none of the mice were died | Platelet Aggregation (%) [1, 2]: 22 ± 5% | inhibition at 300 µM [1, 3]: 62% | IC50 ([1]; Rattus norvegicus, Platelet): 30 µM

COc1ccccc1C(=O)c1c[nH]c2ccccc12 [compound 2, 3-(o-methoxybenzoyl)indole]
mortality (none of the mice were died) (ddy-strain male mice): none of the mice were died | Platelet Aggregation (%) [1, 2]: 7 ± 4% | IC50 ([1]; Rattus norvegicus, Platelet): 29 µM

O=C(c1ccc(O)cc1)c1c[nH]c2ccccc12 [compound 3, 3-(p-hydroxybenzoyl)indole]
mortality (none of the mice were died) (ddy-strain male mice): none of the mice were died | Platelet Aggregation (%) [1, 2]: 7 ± 3% | IC50 ([1]; Rattus norvegicus, Platelet): 27 µM

O=C(c1ccccc1O)c1c[nH]c2ccccc12 [compound 4, 3-(o-hydroxybenzoyl)indole]
mortality (none of the mice were died) (ddy-strain male mice): none of the mice were died | Platelet Aggregation (%) [1, 2]: 8 ± 5% | IC50 ([1]; Rattus norvegicus, Platelet): 23 µM

COc1ccc(C(=O)c2cn(C(C)=O)c3ccccc23)cc1 [compound 5, 3-(p-methoxybenzoyl)-N-acetylindole]
mortality (none of the mice were died) (ddy-strain male mice): none of the mice were died | Platelet Aggregation (%) ([1]; 200 μM, collagen 4 μg/ml, PRP of Wistar-strain male rats 250-300 g, 1 minute at 37° C.): 33 ± 1% | inhibition at 200 µM ([1]; Rattus norvegicus, Platelet, 1 min, 200 μM, collagen 4 μg/ml, PRP of Wistar-strain male rats 250-300 g, 1 minute at 37° C., read-out: Inhibition rate (%)): 43% | IC50 ([1]; Rattus norvegicus, Platelet): 29 µM

COc1ccccc1C(=O)c1cn(C(C)=O)c2ccccc12 [compound 6, 3-(o-methoxybenzoyl)-N-acetylindole]
mortality (none of the mice were died) (ddy-strain male mice): none of the mice were died | Platelet Aggregation (%) [1, 2]: 9 ± 3% | inhibition at 300 µM [1, 3]: 84% | IC50 ([1]; Rattus norvegicus, Platelet): 18 µM

CC(=O)Oc1ccc(C(=O)c2cn(C(C)=O)c3ccccc23)cc1 [compound 7, 3-(p-acetoxybenzoyl)-N-acetylindole]
mortality (none of the mice were died) (ddy-strain male mice): none of the mice were died | Platelet Aggregation (%) [1, 2]: 7 ± 1% | inhibition at 300 µM [1, 3]: 88% | IC50 ([1]; Rattus norvegicus, Platelet): 21 µM

COc1ccc(C(=O)c2cn(C)c3ccccc23)cc1 [compound 8, 3-(p-methoxybenzoyl)-N-methylindole]
mortality (none of the mice were died) (ddy-strain male mice): none of the mice were died | IC50 ([1]; Rattus norvegicus, Platelet): 23 µM

CC(C)Oc1ccc(C(=O)c2c[nH]c3ccccc23)cc1 [compound 9, 3-(p-isopropoxybenzoyl)indole]
mortality (none of the mice were died) (ddy-strain male mice): none of the mice were died | Platelet Aggregation (%) [1, 2]: 8 ± 3%

O=C(c1ccc(OCC(O)CO)cc1)c1c[nH]c2ccccc12 (stereo not drawn) [compound 16, 3-[p-(2,3-dihydroxypropoxy)benzoyl]indole]
IC50 ([1]; Rattus norvegicus, Platelet): 61 µM

O=C(c1ccc(O)cc1)c1cn(CC(O)CO)c2ccccc12 (stereo not drawn) [compound 17, 3-(p-hydroxybenzoyl)-N-(2,3-dihydroxypropyl)indole]
IC50 ([1]; Rattus norvegicus, Platelet): 85 µM

O=C(c1ccc(OCC(O)CO)cc1)c1cn(CC(O)CO)c2ccccc12 (stereo not drawn) [compound 18, 3-[p-(2,3-dihydroxypropoxy)benzoyl]-N-(2,3-dihydroxypropyl)indole]
IC50 ([1]; Rattus norvegicus, Platelet): 94 µM

O=C(c1ccccc1O)c1cn(CC(O)CO)c2ccccc12 (stereo not drawn) [compound 19, 3-(o-hydroxybenzoyl)-N-(2,3-dihydroxypropyl)indole]
IC50 ([1]; Rattus norvegicus, Platelet): 81 µM

O=C(c1ccccc1OCC(O)CO)c1cn(CC(O)CO)c2ccccc12 (stereo not drawn) [compound 20]
IC50 ([1]; Rattus norvegicus, Platelet): 108 µM

O=C(c1ccc(OCCCO)cc1)c1c[nH]c2ccccc12 [compound 23, 3-[p-(3-hydroxypropoxy)benzoyl]indole]
IC50 ([1]; Rattus norvegicus, Platelet): 52 µM

O=C(c1ccc(OCCCO)cc1)c1cn(CCCO)c2ccccc12 [compound 24, 3-[p-(3-hydroxypropoxy)benzoyl]-N-(3-hydroxypropyl)indole]
IC50 ([1]; Rattus norvegicus, Platelet): 77 µM

— patent US4708961A, “Acylindole derivatives and their use in pharmaceutical compositions” (priority 1983, dated 1987)
